Assay results as given in patent US20240390386A1, “CDK8/19 INHIBITORS FOR PREVENTING DRUG RESISTANCE” (University of South Carolina, priority 2021, published 2024).
Like-named read-outs stand apart in the source and are kept apart here.

Experiments:
[1] = system: panel of 468 kinases; details: 2000 nM; cited from earlier work
[2] = system: MDA-MB-468 xenografts; details: for effect on tumor growth: SNX631 350 ppm medicated food
[3] = system: PEN061 PDX TNBC model
[4] = system: PEN027 PDX tumors; details: for effect on event-free survival (KM): 38 days of treatment, event: tumor 2,000 mm^3 or euthanasia; for effect on tumor volume: first 10 days of treatment, everolimus 2 mg/kg daily gavage, SNX631-6 500 ppm food
[5] = everolimus 2 mg/kg daily gavage

Compound	S(10) S-score [1]	S(35) S-score [1]	tolerability based on mouse body weights ([2]; SNX631 350 ppm food, everolimus 2 mg/kg daily gavage)	effect on tumor growth [2, 5]	development of resistance ([3]; continued up to 158 days)	development of in vivo resistance to everolimus ([2]; 150 days of study, tumor volumes and KM event-free survival (event: 500 mm^3))	duration of full suppression of xenograft growth before resistance [2, 5]	effect on event-free survival (KM) [4]	effect on tumor volume [4]	toxicity based on body weight changes ([4]; mouse, in vivo)	toxicity based on average mouse body weights ([3]; SNX631-6 350 ppm food, everolimus 3 mg/kg daily gavage)	effect on tumor growth ([3]; after 63 days of treatment, SNX631-6 350 ppm food, everolimus 3 mg/kg daily gavage)	toxicity based on body weight changes ([4]; surviving mice)
CN(C)C(=O)c1ccc(N2CCCN(c3ccnc4sc(C(N)=O)c(N)c34)CC2)cc1 [SNX631, 3-amino-4-(4-(4 (dimethylcarbamoyl)phenyl)-1,4-diazepan-1-yl)thieno[2,3-b]pyridine-2-carboxamide]	< 0.004	less than 0.02	very well tolerated	modest effect on tumor growth	–	–	–	–	–	–	–	–	–
CO[C@H]1C[C@@H]2CC[C@@H](C)[C@@](O)(O2)C(=O)C(=O)N2CCCC[C@H]2C(=O)O[C@H]([C@H](C)C[C@@H]2CC[C@@H](OCCO)[C@H](OC)C2)CC(=O)[C@H](C)/C=C(\C)[C@@H](O)[C@@H](OC)C(=O)[C@H](C)C[C@H](C)/C=C/C=C/C=C/1C [everolimus, reference compound]	–	–	–	fully suppressed xenograft growth	many of the tumors treated with everolimus alone developed resistance	all the tumors developed everolimus resistance	~50 days of treatment	strong effect	significantly inhibited tumor volume	lack of significant toxicity	–	–	–
[2H]C([2H])([2H])N(C(=O)c1ccc(N2CCCN(c3ccnc4sc(C(N)=O)c(N)c34)CC2)cc1)C([2H])([2H])[2H] [SNX631-6, 3-amino-4-(4-(4-(bis(methyl-d3)carbamoyl)phenyl)-1,4-diazepan-1-yl)thieno[2,3-b]pyridine-2-carboxamide]	–	–	–	–	–	–	–	only a moderate effect on survival	significantly inhibited tumor volume	–	lack of significant toxicity	strongly inhibited tumor growth	lack of significant toxicity
